Drawing on PubChem BioAssay (NCI), this text covers TGI and GI50 for 16 molecules.

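96-well plates; 48 h exposure; 5 concentrations. Endpoints by linear interpolation between flanking doses. Not reached: highest tested concentration assigned. GI50 = concentration required for 50% inhibition of growth. Definition used: TGI = concentration required for complete inhibition of growth.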 Where only a bound is given, the exact number is not on record here.

Among the test systems are UACC-257 melanoma; HL-60(TB) leukemia; SK-OV-3 ovarian; U251 CNS; HOP-62 NSCLC; K-562 leukemia; CCRF-CEM leukemia; NCI-H23 lung; RPMI-8226 leukemia; NCI-H522 lung.
Holding throughout (experiment): NCI-60 cell line screen, 48 h

On to `Cc1ccccc1C(=O)c1ccccc1O`, for which the TGI in the assay on UACC-257 melanoma, in the assay on HL-60(TB) leukemia, in the assay with SK-OV-3 ovarian, with U251 CNS, with HOP-62 NSCLC and in the assay on K-562 leukemia was greater than 100 µM in each case. In addition, the TGI in the assay on CCRF-CEM leukemia and in the assay with NCI-H23 lung was greater than 100 µM throughout.

In the case of `O=C(CNc1ccc2c(c1)C(=O)c1ccccc1C2=O)Nc1ccc2c(c1)C(=O)c1ccccc1C2=O`, the GI50 was 1.49 µM in the assay with UACC-257 melanoma; 0.957 µM in the assay with RPMI-8226 leukemia; 1.57 µM in the assay with HL-60(TB) leukemia; 1.82 µM in the assay on SK-OV-3 ovarian; 0.449 µM with U251 CNS; 1.85 µM in the assay with HOP-62 NSCLC. Further, the figures for the GI50 in the assay with NCI-H522 lung and in the assay on NCI-H23 lung were 0.153 µM and 0.304 µM, respectively. Besides, the TGI was 2.99 µM in the assay on UACC-257 melanoma; 3.46 µM in the assay on RPMI-8226 leukemia; 4.35 µM with HL-60(TB) leukemia; 6.99 µM in the assay on SK-OV-3 ovarian; 1.57 µM in the assay on U251 CNS; 3.59 µM in the assay with HOP-62 NSCLC. Further, the values for the TGI in the assay on NCI-H522 lung and in the assay on NCI-H23 lung were 0.318 µM and 1.09 µM, respectively.

In the case of `N#Cc1c(NN)nc(NN)c(C#N)c1-c1ccccc1`, the TGI in the assay on UACC-257 melanoma, in the assay on RPMI-8226 leukemia, with HL-60(TB) leukemia, in the assay on SK-OV-3 ovarian, in the assay with HOP-62 NSCLC and in the assay on K-562 leukemia was greater than 100 µM throughout. Further, the TGI with CCRF-CEM leukemia and in the assay on NCI-H23 lung was greater than 100 µM each time.

In the case of `Cc1ccc(/C=C2/SC(Nc3nc(-c4csc(NC5=NC(=O)/C(=C\c6ccc(C)cc6)S5)n4)cs3)=NC2=O)cc1`, the GI50 is 2.81 µM in the assay with UACC-257 melanoma; 2.03 µM in the assay with HL-60(TB) leukemia; 3.43 µM in the assay on U251 CNS; 1.94 µM in the assay on HOP-62 NSCLC; 1.91 µM in the assay with K-562 leukemia; 21.6 µM in the assay on NCI-H522 lung. The GI50 in the assay with NCI-H23 lung was 12 µM. In addition, the TGI is 14.6 µM in the assay on UACC-257 melanoma; 29.9 µM in the assay with HL-60(TB) leukemia; greater than 50 µM in the assay with U251 CNS; 15.5 µM with HOP-62 NSCLC; greater than 50 µM in the assay on K-562 leukemia; greater than 50 µM in the assay on NCI-H522 lung. The TGI in the assay with NCI-H23 lung is greater than 50 µM.

`N#Cc1nc2c(S(=O)(=O)c3ccccc3)c(N)n(Cc3cccnc3)c2nc1C#N`: the GI50 in the assay with UACC-257 melanoma was greater than 100 µM; with RPMI-8226 leukemia, greater than 100 µM; in the assay on HL-60(TB) leukemia, 3.71 µM; with SK-OV-3 ovarian it was 18.8 µM; in the assay on U251 CNS, 9.35 µM; in the assay with HOP-62 NSCLC, 17.4 µM. Further, the GI50 with K-562 leukemia was greater than 100 µM; in the assay with CCRF-CEM leukemia, 3.86 µM; with NCI-H23 lung it was 40 µM. The TGI in the assay on UACC-257 melanoma was greater than 100 µM; in the assay on RPMI-8226 leukemia, greater than 100 µM; in the assay on HL-60(TB) leukemia, greater than 100 µM; with SK-OV-3 ovarian, 67.5 µM; with U251 CNS, 33.6 µM; with HOP-62 NSCLC, 41.4 µM. The TGI with K-562 leukemia, in the assay on CCRF-CEM leukemia and in the assay on NCI-H23 lung was greater than 100 µM in each case.

With `CCn1c(CN2CCN(Cc3ccccc3)CC2)nc2cc(NC(=O)c3cccs3)ccc21`, the GI50 in the assay on RPMI-8226 leukemia was 15.8 µM; with HL-60(TB) leukemia, 20.5 µM; in the assay on SK-OV-3 ovarian it was 25.7 µM; in the assay on U251 CNS it was 13.6 µM; in the assay with HOP-62 NSCLC, 17.7 µM; with K-562 leukemia, 15.1 µM. Also, the GI50 with NCI-H23 lung is 19.9 µM. The TGI in the assay with RPMI-8226 leukemia turned out to be 46.1 µM; with HL-60(TB) leukemia, 60.9 µM; in the assay on SK-OV-3 ovarian it was 71.6 µM; in the assay on U251 CNS, 32.3 µM; in the assay with HOP-62 NSCLC, 38 µM; in the assay on K-562 leukemia it was 87.9 µM. Moreover, in the assay on NCI-H23 lung, the TGI was found to be 57 µM.

On to `CCC/C(=N/N=C(N)N)c1ccc(NC(=O)c2cc3cc(OC)ccc3[nH]2)cc1`, for which the GI50 in the assay with UACC-257 melanoma was 16.2 µM; in the assay with RPMI-8226 leukemia, 2.13 µM; in the assay with SK-OV-3 ovarian it was 13.9 µM; in the assay with U251 CNS it was 6.35 µM; with HOP-62 NSCLC it was 10.1 µM; in the assay with NCI-H522 lung, 12.7 µM. For the same molecule, the GI50 in the assay with NCI-H23 lung is 16 µM. Further, the TGI in the assay on UACC-257 melanoma is 37.5 µM; in the assay with RPMI-8226 leukemia, 5.01 µM; in the assay on SK-OV-3 ovarian, 29.6 µM; with U251 CNS, 25.1 µM; in the assay with HOP-62 NSCLC, 30.2 µM; in the assay with NCI-H522 lung, 33.9 µM. Also, the TGI with NCI-H23 lung amounted to 36.2 µM.

As for `CCc1c(C#N)c(S[C@@H](C(N)=O)c2ccccc2)nc(N(C)C)c1C#N`, the GI50 with RPMI-8226 leukemia is greater than 100 µM; with SK-OV-3 ovarian, 6.65 µM; in the assay on U251 CNS, 11 µM; in the assay with HOP-62 NSCLC, 3.63 µM; in the assay on CCRF-CEM leukemia, greater than 100 µM; in the assay with NCI-H23 lung it was 21.1 µM. Moreover, the TGI in the assay on RPMI-8226 leukemia was greater than 100 µM; with SK-OV-3 ovarian it was greater than 100 µM; with U251 CNS it was 42.1 µM; in the assay with HOP-62 NSCLC it was 17.7 µM; in the assay with CCRF-CEM leukemia, greater than 100 µM; in the assay with NCI-H23 lung it was greater than 100 µM.

As to `Oc1ccccc1C=NCc1ccco1`, the TGI with UACC-257 melanoma, in the assay on RPMI-8226 leukemia, with HL-60(TB) leukemia, in the assay on SK-OV-3 ovarian, in the assay with U251 CNS and in the assay on HOP-62 NSCLC was greater than 100 µM each time. The TGI in the assay with K-562 leukemia, in the assay on CCRF-CEM leukemia and in the assay on NCI-H23 lung was greater than 100 µM each time.

As to `CCOc1ccccc1NC(=O)CC1SC(=Nc2ccc([N+](=O)[O-])cc2)NC1=O` (configuration not stated), the TGI with UACC-257 melanoma was 46.1 µM; in the assay with RPMI-8226 leukemia it was 28.9 µM; in the assay with HL-60(TB) leukemia, greater than 100 µM; in the assay on U251 CNS it was 28 µM; with HOP-62 NSCLC, 34.3 µM; with CCRF-CEM leukemia, 54.3 µM. This molecule also displayed a TGI in the assay on NCI-H23 lung of 35.2 µM.

As for `CC(=O)[CH-]C(=O)c1ccccc1.CC(=O)[CH-]C(=O)c1ccccc1.CC1(C)C2CCC1(C)C([O-])C2.CC1(C)C2CCC1(C)C([O-])C2.[Ti+4]`, the GI50 in the assay with UACC-257 melanoma is 88.7 µM; in the assay with RPMI-8226 leukemia it was 25 µM; with HL-60(TB) leukemia, 23.8 µM; in the assay with SK-OV-3 ovarian, 20.8 µM; in the assay on U251 CNS, 40.4 µM; in the assay on HOP-62 NSCLC, 25.7 µM. Besides, the GI50 was 30.5 µM in the assay with K-562 leukemia and 25.1 µM with CCRF-CEM leukemia. Also, the TGI in the assay with UACC-257 melanoma is greater than 100 µM; in the assay with RPMI-8226 leukemia it was greater than 100 µM; in the assay with HL-60(TB) leukemia, greater than 100 µM; in the assay with SK-OV-3 ovarian, 74.1 µM; in the assay on U251 CNS it was greater than 100 µM; in the assay with HOP-62 NSCLC, 81.8 µM. The TGI in the assay on K-562 leukemia and in the assay with CCRF-CEM leukemia was greater than 100 µM in each case.

In the case of `Oc1cc(O)c2c(-c3c(O)c(-c4ccc(O)c(O)c4)[o+]c4cc(O)cc(O)c34)c(O)c(-c3ccc(O)c(O)c3)[o+]c2c1`, the TGI with UACC-257 melanoma is greater than 100 µM; with RPMI-8226 leukemia it was greater than 100 µM; in the assay on SK-OV-3 ovarian, greater than 100 µM; with U251 CNS it was greater than 100 µM; in the assay with HOP-62 NSCLC it was 97.8 µM; in the assay with NCI-H23 lung, greater than 100 µM.

Take `CC(=O)[CH-]C(=O)c1ccccc1.CC(=O)[CH-]C(=O)c1ccccc1.[Eu+3].[OH-].[OH3+]`: the GI50 with UACC-257 melanoma, with RPMI-8226 leukemia, with HL-60(TB) leukemia, in the assay on SK-OV-3 ovarian, in the assay on U251 CNS and with HOP-62 NSCLC was greater than 100 µM throughout. For the same molecule, the GI50 in the assay on K-562 leukemia, in the assay on CCRF-CEM leukemia and with NCI-H23 lung was greater than 100 µM in each case. Besides, the TGI with UACC-257 melanoma, in the assay on RPMI-8226 leukemia, with HL-60(TB) leukemia, with SK-OV-3 ovarian, with U251 CNS and in the assay with HOP-62 NSCLC was greater than 100 µM each time. Moreover, the TGI with K-562 leukemia, in the assay on CCRF-CEM leukemia and in the assay on NCI-H23 lung was greater than 100 µM in each case.

In the case of `c1ccc2[nH]c(-c3ccc(NN=Nc4ccncc4)cc3)nc2c1`, the GI50 in the assay on UACC-257 melanoma was greater than 100 µM; with RPMI-8226 leukemia it was 6.3 µM; in the assay with HL-60(TB) leukemia, greater than 100 µM; with SK-OV-3 ovarian it was greater than 100 µM; with U251 CNS, 27.2 µM; with HOP-62 NSCLC, greater than 100 µM. Besides, the GI50 with K-562 leukemia was 14.6 µM; in the assay on NCI-H522 lung, 77.6 µM. In addition, the TGI in the assay on UACC-257 melanoma was greater than 100 µM; with RPMI-8226 leukemia it was 38.4 µM; with HL-60(TB) leukemia, greater than 100 µM; in the assay on SK-OV-3 ovarian, greater than 100 µM; with U251 CNS, greater than 100 µM; in the assay on HOP-62 NSCLC it was greater than 100 µM. Moreover, the TGI in the assay with K-562 leukemia is 61.8 µM; in the assay on NCI-H522 lung it was greater than 100 µM.

Turning to `O=C(CO)CC(=O)C(=O)Nc1ccccc1`, the TGI with UACC-257 melanoma, in the assay with HL-60(TB) leukemia, in the assay on SK-OV-3 ovarian, in the assay with U251 CNS, in the assay on HOP-62 NSCLC and in the assay with K-562 leukemia was greater than 100 µM in each case. Further, the TGI with CCRF-CEM leukemia and with NCI-H23 lung was greater than 100 µM in each case.

With `CN(C)c1ccc([O][Bi]([Cl])[Cl])cc1`, the GI50 in the assay with UACC-257 melanoma is 37.2 µM; in the assay on SK-OV-3 ovarian, greater than 100 µM; with U251 CNS it was greater than 100 µM; with NCI-H23 lung it was greater than 100 µM. In addition, the TGI in the assay on UACC-257 melanoma, in the assay with SK-OV-3 ovarian, with U251 CNS and in the assay with NCI-H23 lung was greater than 100 µM each time.
